In brackets after ≈: the same amount, converted by molar mass.
T1: PER-1 (Pseudomonas aeruginosa, UniProt P37321)
T1 sequence (P37321 27-308): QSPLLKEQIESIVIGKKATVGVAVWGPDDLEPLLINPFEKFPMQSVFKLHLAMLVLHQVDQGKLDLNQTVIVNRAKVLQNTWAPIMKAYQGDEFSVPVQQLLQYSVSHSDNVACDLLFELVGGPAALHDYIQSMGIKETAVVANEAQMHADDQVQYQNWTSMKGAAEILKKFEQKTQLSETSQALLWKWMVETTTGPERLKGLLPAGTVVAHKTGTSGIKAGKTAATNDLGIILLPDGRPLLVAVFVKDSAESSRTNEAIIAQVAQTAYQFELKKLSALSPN

T2: PER-4 (Pseudomonas aeruginosa, UniProt P37321, S135T)
T2 sequence (P37321 27-308 S135T): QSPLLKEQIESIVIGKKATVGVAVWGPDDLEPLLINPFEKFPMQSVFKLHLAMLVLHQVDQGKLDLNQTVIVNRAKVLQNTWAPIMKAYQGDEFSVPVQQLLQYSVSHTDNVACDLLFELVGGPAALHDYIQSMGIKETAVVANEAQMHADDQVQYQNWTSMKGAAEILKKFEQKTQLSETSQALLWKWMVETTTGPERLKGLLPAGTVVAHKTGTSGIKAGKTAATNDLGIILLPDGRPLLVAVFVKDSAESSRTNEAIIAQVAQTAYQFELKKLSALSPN


What was measured:
[1] = tested on: PER-producing P. aeruginosa clinical isolates; assay: microbe, parasite or virus in culture; assay type: cell-based, Pseudomonas aeruginosa; details: for % resistance: share of isolates resistant
[2] = tested on: PAO1 transconjugants carrying blaPER-1 plasmids; assay: Broth microdilution MIC, transconjugants and recipient PAO1-Rrif; assay type: cell-based; details: Pseudomonas aeruginosa
Recombinant PAO1 strains = assay: Broth microdilution MIC, recombinant PAO1 strains carrying blaPER; assay type: cell-based; details: Pseudomonas aeruginosa
PER-1 [3] = target: T1, PER-1; assay: Direct competition inhibition assay with nitrocefin, PER-1; assay type: biochemical
PER-4 [4] = target: T2, PER-4; assay: Direct competition inhibition assay with nitrocefin, PER-4; assay type: biochemical; details: for fold higher IC50 value against PER-4 than against wild-type PER-1: PER-4 vs PER-1
PER-1 [5] = target: T1, PER-1; assay: Steady-state enzyme kinetics, purified PER-1; assay type: biochemical
PER-4 [6] = target: T2, PER-4; assay: Steady-state enzyme kinetics, purified PER-4; assay type: biochemical; details: for Km / kcat: room temperature, 1×PBS pH 7.2
[7] = substrate: CC(C)(O/N=C(\C(=O)N[C@@H]1C(=O)N2C(C(=O)[O-])=C(C[n+]3ccccc3)CS[C@H]12)c1csc(N)n1)C(=O)O; assay: Steady-state enzyme kinetics, purified PER-1; assay type: biochemical, Pseudomonas aeruginosa; details: other: PER-1, room temperature, 1×PBS pH 7.2
[8] = substrate: O=C(Cc1cccs1)N[C@@H]1C(=O)N2C(C(=O)O)=C(/C=C/c3ccc([N+](=O)[O-])cc3[N+](=O)[O-])CS[C@H]12; assay: Steady-state enzyme kinetics, purified PER-1; assay type: biochemical, Pseudomonas aeruginosa; details: other: PER-1, room temperature, 1×PBS pH 7.2
[9] = Pseudomonas aeruginosa, isolate PA268
[10] = Pseudomonas aeruginosa, isolate PA272
[11] = Pseudomonas aeruginosa, isolate PA282
[12] = Pseudomonas aeruginosa, isolate PA975
[13] = Pseudomonas aeruginosa, isolate PA1017
[14] = Pseudomonas aeruginosa, isolate PA1018
[15] = PAO1, recipient strain PAO1-R^rif
[16] = PAO1, transconjugant PAO1/pPA268
[17] = PAO1, transconjugant PAO1/pPA272
[18] = PAO1, transconjugant PAO1/pPA282
[19] = PAO1, transconjugant PAO1/pPA975
[20] = PAO1, transconjugant PAO1/pPA1017
[21] = PAO1, strain PAO1-pGK1900 (empty vector)
[22] = PAO1, transconjugant PAO1/pPA1018

Molecule | MIC [1, 9] | MIC [1, 10] | MIC [1, 11] | MIC [1, 12] | MIC [1, 13] | MIC [1, 14] | MIC [2, 16] | MIC [2, 17] | MIC [2, 18] | MIC [2, 19] | MIC [2, 20] | MIC (Recombinant PAO1 strains; PAO1) | MIC (Recombinant PAO1 strains; [21]) | MIC (Recombinant PAO1 strains; PAO1, strain PAO1-pGK1900-PER1) | MIC (Recombinant PAO1 strains; PAO1, strain PAO1-pGK1900-PER4) | % resistance ([1]; 56 PER-producing PA strains) | MIC50 ([1]; Pseudomonas aeruginosa) | MIC90 ([1]; Pseudomonas aeruginosa) | MIC [2, 22] | also measured
CC(C)(O/N=C(\C(=O)N[C@@H]1C(=O)N2C(C(=O)[O-])=C(C[N+]3(CCNC(=O)c4ccc(O)c(O)c4Cl)CCCC3)CS[C@H]12)c1csc(N)n1)C(=O)O [CFDC, Cefiderocol] | 2 µg/mL (≈ 2.66 µM) | 2 µg/mL (≈ 2.66 µM) | 2 µg/mL (≈ 2.66 µM) | 1 µg/mL (≈ 1.33 µM) | 2 µg/mL (≈ 2.66 µM) | 1 µg/mL (≈ 1.33 µM) | 2 µg/mL (≈ 2.66 µM) | 2 µg/mL (≈ 2.66 µM) | 2 µg/mL (≈ 2.66 µM) | 2 µg/mL (≈ 2.66 µM) | 2 µg/mL (≈ 2.66 µM) | 1 µg/mL | 0.5 µg/mL | 2 µg/mL | 2 µg/mL |  |  |  |  | MIC [2, 15]: 0.5 µg/mL (≈ 0.665 µM)
NC(=O)[C@@H]1CC[C@@H]2CN1C(=O)N2OS(=O)(=O)O [Avibactam] |  |  |  |  |  |  |  |  |  |  |  |  |  |  |  |  |  |  |  | IC50 (PER-1 [3]): 217 nM; Ki (PER-1 [3]): 191 ± 4 nM; IC50 (PER-4 [4]): 729 µM; Ki (PER-4 [4]): 473 ± 29.2 µM; fold higher IC50 value against PER-4 than against wild-type PER-1 (PER-4 [4]): ~3359 fold
C[C@]1(Cn2ccnn2)[C@H](C(=O)O)N2C(=O)C[C@H]2S1(=O)=O [Tazobactam] |  |  |  |  |  |  |  |  |  |  |  |  |  |  |  |  |  |  |  | IC50 (PER-1 [3]): 363 nM; Ki (PER-1 [3]): 320 ± 13.1 nM; IC50 (PER-4 [4]): 1090 µM; Ki (PER-4 [4]): 707 ± 97.7 µM; fold higher IC50 value against PER-4 than against wild-type PER-1 (PER-4 [4]): ~3002 fold
C[C@@H](O)[C@H]1C(=O)N2C(C(=O)O)=C(S[C@@H]3CN[C@H](C(=O)N(C)C)C3)[C@H](C)[C@H]12 [MEM, meropenem] | 16 µg/mL (≈ 41.7 µM) | 32 µg/mL (≈ 83.4 µM) | 32 µg/mL (≈ 83.4 µM) | 16 µg/mL (≈ 41.7 µM) | 16 µg/mL (≈ 41.7 µM) | 32 µg/mL (≈ 83.4 µM) | 1 µg/mL (≈ 2.61 µM) | 1 µg/mL (≈ 2.61 µM) | 1 µg/mL (≈ 2.61 µM) | 2 µg/mL (≈ 5.22 µM) | 1 µg/mL (≈ 2.61 µM) | 0.5 µg/mL | 1 µg/mL | 1 µg/mL | 1 µg/mL | 91.07% | 16 µg/mL (≈ 41.7 µM) | 64 µg/mL (≈ 167 µM) | 32 µg/mL (≈ 83.4 µM) | 
C[C@@H](O)[C@H]1C(=O)N2C(C(=O)O)=C(SCCN=CN)C[C@H]12 [IPM, imipenem] | 16 µg/mL (≈ 53.4 µM) | 16 µg/mL (≈ 53.4 µM) | 16 µg/mL (≈ 53.4 µM) | 16 µg/mL (≈ 53.4 µM) | 32 µg/mL (≈ 107 µM) | 32 µg/mL (≈ 107 µM) |  | 2 µg/mL (≈ 6.68 µM) |  |  |  | 1 µg/mL |  |  |  | 92.86% | 16 µg/mL (≈ 53.4 µM) | 32 µg/mL (≈ 107 µM) | 32 µg/mL (≈ 107 µM) | MIC range ([1]; 56 PER-producing PA strains): 0.5 to 64 mg/L; imipenem hydrolysis activity (PER-1 [5]; PER-1): hardly any detectable; imipenem hydrolysis activity (PER-4 [6]): hardly any detectable
CO/N=C(\C(=O)N[C@@H]1C(=O)N2C(C(=O)[O-])=C(C[N+]3(C)CCCC3)CS[C@H]12)c1csc(N)n1 [FEP, cefepime] |  |  |  |  |  |  | 128 µg/mL (≈ 266 µM) | 128 µg/mL (≈ 266 µM) | 128 µg/mL (≈ 266 µM) | 64 µg/mL (≈ 133 µM) | 128 µg/mL (≈ 266 µM) | 1 µg/mL | 4 µg/mL | > 128 µg/mL | > 128 µg/mL |  |  |  | 128 µg/mL (≈ 266 µM) | MIC [2, 15]: 2 µg/mL (≈ 4.16 µM)
CC(C)(O/N=C(\C(=O)N[C@@H]1C(=O)N2C(C(=O)[O-])=C(C[n+]3ccccc3)CS[C@H]12)c1csc(N)n1)C(=O)O [CAZ, ceftazidime] | > 128 µg/mL | > 128 µg/mL | > 128 µg/mL | > 128 µg/mL | > 128 µg/mL | > 128 µg/mL | > 128 µg/mL | > 128 µg/mL | > 128 µg/mL | 128 µg/mL (≈ 234 µM) | > 128 µg/mL | 1 µg/mL | 2 µg/mL | > 128 µg/mL | > 128 µg/mL | 100.00% | > 128 µg/mL | > 128 µg/mL | > 128 µg/mL | MIC range ([1]; 56 PER-producing PA strains): >128 mg/L; % resistance ([1]; 56 PER-producing PA strains, listed as ceftazidime): 100%; Km (PER-4 [6]): 726 µM; kcat (PER-4 [6]): 607.66 s⁻¹
O=C(O)[C@H]1/C(=C/CO)O[C@@H]2CC(=O)N21 [Clavulanic acid] |  |  |  |  |  |  |  |  |  |  |  |  |  |  |  |  |  |  |  | IC50 (PER-1 [3]): 27 nM; Ki (PER-1 [3]): 24 ± 0.4 nM; IC50 (PER-4 [4]): 0.152 µM; Ki (PER-4 [4]): 0.099 ± 0.0006 µM; fold higher IC50 value against PER-4 than against wild-type PER-1 (PER-4 [4]): ~5.6 fold
NCC[C@H](O)C(=O)N[C@@H]1C[C@H](N)[C@@H](O[C@H]2O[C@H](CN)[C@@H](O)[C@H](O)[C@H]2O)[C@H](O)[C@H]1O[C@H]1O[C@H](CO)[C@@H](O)[C@H](N)[C@H]1O [AMK, amikacin] |  |  |  |  |  |  |  |  |  |  |  |  |  |  |  | 94.64% | > 128 µg/mL | > 128 µg/mL |  | 
colistin [CST] |  |  |  |  |  |  |  |  |  |  |  |  |  |  |  | 0.00% |  |  |  | MIC50 ([1]; 56 PER-producing PA strains): 2 µg/mL; MIC90 ([1]; 56 PER-producing PA strains): 2 µg/mL; MIC range ([1]; 56 PER-producing PA strains): 0.25 to 2 mg/L
CCN1CCN(C(=O)N[C@@H](C(=O)N[C@@H]2C(=O)N3[C@@H]2SC(C)(C)[C@@H]3C(=O)O)c2ccccc2)C(=O)C1=O [PIP, piperacillin] | > 128 µg/mL | > 128 µg/mL | > 128 µg/mL | 128 µg/mL (≈ 247 µM) | > 128 µg/mL | > 128 µg/mL | > 128 µg/mL | > 128 µg/mL | > 128 µg/mL | 128 µg/mL (≈ 247 µM) | 128 µg/mL (≈ 247 µM) | 4 µg/mL |  | 32 µg/mL | 16 µg/mL | 98.21% | > 128 µg/mL | > 128 µg/mL | > 128 µg/mL | 
O=C(Cc1cccs1)N[C@@H]1C(=O)N2C(C(=O)O)=C(/C=C/c3ccc([N+](=O)[O-])cc3[N+](=O)[O-])CS[C@H]12 [Nitrocefin] |  |  |  |  |  |  |  |  |  |  |  |  |  |  |  |  |  |  |  | fold lower nitrocefin hydrolysis activity of PER-1 than PER-4 (PER-1 [5]; PER-1 vs PER-4): ~1.7 fold; Km (PER-4 [6]): 18.5 µM; kcat (PER-4 [6]): 224.03 s⁻¹
C[C@H]1[C@H](NC(=O)/C(=N\OC(C)(C)C(=O)O)c2csc(N)n2)C(=O)N1S(=O)(=O)O [AZT, aztreonam] |  |  |  |  |  |  | > 128 µg/mL | > 128 µg/mL | > 128 µg/mL | > 128 µg/mL | > 128 µg/mL | 4 µg/mL | 8 µg/mL | > 128 µg/mL | > 128 µg/mL |  |  |  | > 128 µg/mL | MIC [2, 15]: 2 µg/mL (≈ 4.59 µM)
C[C@H]1COc2c(N3CCN(C)CC3)c(F)cc3c(=O)c(C(=O)O)cn1c23 [LEV, levofloxacin] |  |  |  |  |  |  |  |  |  |  |  |  |  |  |  | 82.14% | 16 µg/mL (≈ 44.3 µM) | 32 µg/mL (≈ 88.6 µM) |  | MIC range ([1]; 56 PER-producing PA strains): 0.5 to 64 mg/L
PER-1 (Pseudomonas aeruginosa) (protein) QSPLLKEQIESIVIGKKATVGVAVWGPDDLEPLLINPFEKFPMQSVFKLHLAMLVLHQVDQGKLDLNQTVIVNRAKVLQNTWAPIMKAYQGDEFSVPVQQLLQYSVSHSDNVACDLLFELVGGPAALHDYIQSMGIKETAVVANEAQMHADDQVQYQNWTSMKGAAEILKKFEQKTQLSETSQALLWKWMVETTTGPERLKGLLPAGTVVAHKTGTSGIKAGKTAATNDLGIILLPDGRPLLVAVFVKDSAESSRTNEAIIAQVAQTAYQFELKKLSALSPN |  |  |  |  |  |  |  |  |  |  |  |  |  |  |  |  |  |  |  | Km [7]: 668.75 µM; kcat [7]: 537 s⁻¹; Km [8]: 72.92 µM; kcat [8]: 512 s⁻¹

Reference: PMC10939098 (Emerging Microbes & Infections, 2024)
